Several values for one entry are separate records, joined by “and”; a condition that tells them apart may be missing. Equal values may be shown once. Entries after “also recorded” stand apart in the source; their conditions may differ. Read-outs that look alike come from different tables or passages of the source.
Key:
[1] = target: T1, LBs and LNs in DLB and MSA patient brains (Homo sapiens, UniProt P37840); experiment: ex vivo screening on DLB and MSA patient brain sections; format: binding
T1 construct: from tissue; host or cells: brain sections of DLB and MSA patients
Description: (§1) Ex vivo screening was extended into human DLB, MSA and AD patient samples. […] Since there are detectable α-Syn aggregates in AD patient brains, these compounds colocalized with p-S129 positive α-Syn inclusions.
(§2) The ex vivo screening was extended into human DLB, MSA and AD patient samples. Neurodegenerative disease of DLB (dementia with Lewy Bodies) and MSA belongs to synucleinopathies with well-defined Lewy bodies.

α-Syn PFFs = α-Syn PFFs (Homo sapiens, UniProt P37840); experiment: fluorescence spectroscopy titration with α-Syn PFFs; format: binding; conditions: for binding to α-Syn PFFs by fluorescent emission intensity: 0.08 μM fibrils, 5 μM small molecule, result in words
Procedure: (§3) A fluorescent titration assay was conducted. The fluorescent emission intensities were determined with 0.08 μM of various fibrils in the presence of 5 μM of the small molecules.
(§4) To further investigate the selected compounds binding activities with α-Syn PFFs, fluorescence spectroscopy titrations were conducted to quantitatively measure compounds emission intensity when interacting with different concentrations of α-Syn PFFs. The UV spectrum of each compound was determined and selected for the optimal wavelength to conduct the fluorescence spectroscopic studies.

[2] = test system: neurons with Aβ or Tau aggregates; experiment: neuronal Aβ and Tau aggregation models, fluorescent microscopy; format: cell-based; conditions: primary cultured neurons
Description: (§5) A series of derivatives were synthesized by including an amino group and a methyl group on benzothiazole to increase the brain permeability and fluorescent signals. The derivatives were subsequently subjected to α-Syn PFFs binding assay and counter-screening with Tau and Aβ PFFs. […] These compounds were screened on the neuronal α-Syn, Tau and Aβ aggregation model for the binding selectivity. Primary cultured neurons were infected with AAV-α-Syn, AAV-Tau FL for 7 days, then treated with α-Syn, Tau or Aβ PFFs. In a few days, the positive compounds were added in the primary neurons with indicated aggregates and analyzed under fluorescent microscopy.
(§6) Primary cultured neurons were infected with AAV-α-Syn, AAV-Tau FL or AAV-APP fragment virus for 7 days, and then treated with α-Syn, Tau or Aβ PFFs by following the described protocols (Volpicelli-Daley et al., 2014). In a few days, the positive compounds were added in the primary neurons with indicated aggregation.

[3] = plasma-brain ratio study / in vivo PK of EU compounds; design: species or system mouse; conditions: for B/P: single animals; for brain permeability: i.v.
Procedure: To address whether the selected compounds penetrate the brain, a plasma-brain ratio study was performed with EU04-03A, EU05-02A and EU05-02B.
To test whether these compounds are brain permeable in vivo, in vivo PK profiling was conducted to determine brain exposure.

[4] = test system: senile plaques or NFT in AD; experiment: ex vivo screening on AD patient brain sections; format: binding, human
Description: as §1, §2

α-Syn aggregated neurons = experiment: neuronal α-Syn aggregation model, fluorescent microscopy; format: cell-based; conditions: primary cultured neurons, AAV-α-Syn plus α-Syn PFFs
Description: as §5, §6

[5] = test system: NFT in Tau P301S and 3×Tg mice brain sections; experiment: staining of mouse brain sections with NFT; format: binding
Procedure: (§7) To further explore whether the positive compounds selectively bind to the Lewy bodies, α-Syn A53T patient-derived mutant virus injected WT mice brain slices were employed. These mice display extensive Lewy bodies in the SN.
(§8) To further explore whether the positive compounds selectively bind to the Lewy bodies, a α-Syn A53T patient-derived mutant virus was injected into WT mice brain slices. These mice display extensive Lewy bodies in the Substantial nigra (SN). Moreover, P301S mice expressed neurofibrillary tangles (NFT). The Lewy bodies were labeled with p-α-Syn S129 antibody and the positive aggregates were also labeled with the fluorescent signals from the small molecules. […] However, it was worth noting that almost none of the tested compounds were reactive with NFT.

[6] = target: T2, Lewy bodies in α-Syn A53T virus injected WT mice brain slices (Homo sapiens, UniProt P37840, A53T); experiment: staining of mouse brain slices with Lewy bodies; format: binding
T2 construct: from tissue; host or cells: brain (substantia nigra) of wild-type mice injected with α-Syn A53T virus
Procedure: as §7, §8

[7] = target: T3, senile plaques in 5×FAD and 3×Tg mice brain sections (Homo sapiens, UniProt P05067); experiment: staining of mouse brain sections with senile plaques; format: binding
T3 construct: Aβ-enriched senile plaques; from tissue; host or cells: brain sections of 5×FAD and 3×Tg mice
T3 sequence (P05067 672-713 limits assumed): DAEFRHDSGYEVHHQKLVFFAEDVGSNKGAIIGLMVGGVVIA

Tau PFFs [8] = target: T4, Tau PFFs (Homo sapiens, UniProt P10636); experiment: fluorescence spectroscopy titration with Tau PFFs; format: binding; conditions: fluorescence spectroscopy titration; read-out: binding constant Kd for Tau PFFs
T4 sequence (P10636 whole entry): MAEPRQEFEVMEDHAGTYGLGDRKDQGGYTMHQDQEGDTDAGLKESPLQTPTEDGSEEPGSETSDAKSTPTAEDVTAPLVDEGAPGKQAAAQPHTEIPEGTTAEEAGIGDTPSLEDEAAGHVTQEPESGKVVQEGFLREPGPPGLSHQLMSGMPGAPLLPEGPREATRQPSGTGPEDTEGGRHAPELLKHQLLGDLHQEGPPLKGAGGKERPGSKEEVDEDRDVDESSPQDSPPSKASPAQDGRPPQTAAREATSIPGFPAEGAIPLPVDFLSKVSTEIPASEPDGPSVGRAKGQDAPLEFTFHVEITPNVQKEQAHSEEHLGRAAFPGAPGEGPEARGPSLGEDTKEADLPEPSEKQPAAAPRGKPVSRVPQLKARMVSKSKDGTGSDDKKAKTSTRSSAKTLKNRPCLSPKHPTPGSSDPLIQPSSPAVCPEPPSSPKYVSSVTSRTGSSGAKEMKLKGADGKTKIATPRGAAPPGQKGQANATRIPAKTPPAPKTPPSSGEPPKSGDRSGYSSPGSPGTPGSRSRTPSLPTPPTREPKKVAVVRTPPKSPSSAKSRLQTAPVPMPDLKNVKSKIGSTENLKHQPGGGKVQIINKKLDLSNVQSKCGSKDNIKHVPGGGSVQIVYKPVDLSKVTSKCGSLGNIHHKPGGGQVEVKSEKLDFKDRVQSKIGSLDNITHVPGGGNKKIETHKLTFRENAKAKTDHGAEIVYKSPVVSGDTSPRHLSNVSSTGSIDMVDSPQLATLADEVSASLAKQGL
Procedure: as §3, §4

Aβ PFFs [9] = target: T5, Aβ PFFs (Homo sapiens, UniProt P05067); experiment: fluorescence spectroscopy titration with Aβ PFFs; format: binding; conditions: fluorescence spectroscopy titration; read-out: binding constant Kd for Aβ PFFs
T5 construct: counter-screening with Tau and Aβ PFFs
T5 sequence (P05067 672-713 limits assumed): as the sequence (P05067 672-713 limits assumed) above
Procedure: as §3, §4

Tau PFFs [10] = target: T4, Tau PFFs; experiment: counter-screening with Tau PFFs; format: binding; conditions: result in words
Description: (§9) The general strategy that was employed to screen the candidate Lewy body PET agents is summarized as follows: (a) To perform in vitro binding assay with Pre-formed fibrils (PFFs) of α-Syn and counter-screening with Tau and Aβ PFFs; (b) To test the positive compounds in the neuronal models with aggregated α-Syn, Tau or […]; (c) To screen with the brain slides from α-Syn mutant A53T virus injected WT mice, and counter-screen with aged 3×Tg (containing both senile plaques and NFT), and aged Tau P301S (NFT) brain sections; (d) to screen the patient brain sections from DLB and MSA against AD; (e) To determine the binding kinetics between α-Syn PFFs and positive hits; (f) To determine the candidates in vivo brain/plasma (B/P) ratios and the brain permeability; (g) To determine the in vivo PET images in α-Syn A53T with candidates and compare its images in 5XFAD and Tau P301S mice.
(§10) To perform in vitro binding assay, commercial compounds were screened (See FIG. 7B).
(§11) A series of derivatives were synthesized by including an amino group and a methyl group on benzothiazole to increase the brain permeability and fluorescent signals. The derivatives were subsequently subjected to α-Syn PFFs binding assay and counter-screening with Tau and Aβ PFFs. […] In a few days, the positive compounds were added in the primary neurons with indicated aggregates and analyzed under fluorescent microscopy. […]

Aβ PFFs [11] = target: T5, Aβ PFFs; experiment: counter-screening with Aβ PFFs; format: binding; conditions: result in words
Description: as §9, §10, §11

[12] = target: pre-formed fibrils (PFFs) of α-Synuclein (Homo sapiens, UniProt P37840); experiment: in vitro binding assay with α-Syn PFFs; conditions: fibrils binding assay, result in words
Description: as §9, §10, §5
To perform in vitro binding assay, compounds were screened. […] An amino group and a methyl group in the benzothazole were added to increase its brain permeability and fluorescent signals. […] The synthesized derivatives were subsequently subjected to the α-Syn PFFs binding and counter-screen of Tau and Aβ PFFs as described above.

[13] = in vivo PK study of compound 13 decaying into F0502B; conditions: after injection of compound 13, 15 min to 90 min

SMILES: Cc1cc2nc(/C=C/c3ccc(O)c(Br)c3)sc2cc1N(C)C [EU-005-02B, (E)-2-bromo-4-(2-(6-(dimethylamino)-5-methylbenzo[d]thiazol-2-yl)vinyl)phenol]
- staining of LBs and LNs [1]: robust signals with LBs and LNs
- staining of LBs and LNs ([1]; listed as EU05-02B): robust signals with LBs and LNs in DLB and MSA patient brains
- binding to α-Syn PFFs by fluorescent emission intensity (α-Syn PFFs): stronger binding affinity toward α-Syn PFFs versus Tau and Aβ PFFs; also recorded: dose-dependent escalation of the emission intensities
- binding to α-Syn PFFs by fluorescent emission intensity (α-Syn PFFs; listed as EU05-02B): partial binding selectivity toward α-Syn PFFs versus Aβ and Tau fibrils
- binding to α-Syn PFFs by fluorescent emission intensity (α-Syn PFFs; listed as EU-05-02B): showed specific association with the PFFs
- Kd (α-Syn PFFs; fluorescence spectroscopy titration, read-out: binding constant Kd for α-Syn PFFs): 170 nM
- fluorescent signal in neurons with Aβ or Tau aggregates [2]: negligible effects in neurons with Aβ or Tau aggregates
- B/P ([3]; Male ICH Mouse, 5 mg/kg IV, 0.50 h, 5 mg/kg): 2.00 and 2.47 and 1.16
- B/P ([3]; Male ICH Mouse, 5 mg/kg IV, 1.00 h, 5 mg/kg): 2.72 and 6.12 and 4.48
- B/P ([3]; Male ICH Mouse, 5 mg/kg IV, 2.00 h, 5 mg/kg): 5.13 and 13.88 and 25.06
- B/P ([3]; Male ICH Mouse, 5 mg/kg IV, 4.00 h, 5 mg/kg): 29.74 and 5.63 and 21.06
- B/P ([3]; Male ICH Mouse, 5 mg/kg IV, 8.00 h, 5 mg/kg): 57.33 and 78.00 and 36.00
- Kp at 0.5 h ([3]; male, ICH, mouse, brain, iv, 5 mg/kg, Male ICH Mouse, 5 mg/kg IV, 0.50 h, read-out: B/P Mean): 1.88
- Kp at 1 h ([3]; male, ICH, mouse, brain, iv, 5 mg/kg, Male ICH Mouse, 5 mg/kg IV, 1.00 h, read-out: B/P Mean): 4.44
- Kp at 2 h ([3]; male, ICH, mouse, brain, iv, 5 mg/kg, Male ICH Mouse, 5 mg/kg IV, 2.00 h, read-out: B/P Mean): 14.7
- Kp at 4 h ([3]; male, ICH, mouse, brain, iv, 5 mg/kg, Male ICH Mouse, 5 mg/kg IV, 4.00 h, read-out: B/P Mean): 18.8
- Kp at 8 h ([3]; male, ICH, mouse, brain, iv, 5 mg/kg, Male ICH Mouse, 5 mg/kg IV, 8.00 h, read-out: B/P Mean): 57.1
- in vivo half-life / decay ([3]; mice, i.v. 5 mg/kg, result in words): long in vivo half-life
- brain permeability ([3]; mice, result in words): time-dependent escalation of B/P ratios; also recorded: brain permeability is much higher as compared to EU-005-02A
- brain permeability ([3]; mice, result in words, listed as EU05-02B): swiftly penetrated the brain and exhibited much higher brain permeability compared to EU05-02A
- staining of senile plaques or NFT (Aβ, AT8 positive aggregates) [4]: barely co-stained with anti-AD or AT8 positive aggregate signals
- staining of senile plaques or NFT (Aβ, AT8 positive aggregates) ([4]; listed as EU05-02B): did not stain senile plaques or NFT in AD
- fluorescent signal in α-Syn aggregated neurons (α-Syn aggregated neurons): positive for selective binding
- fluorescent signal in α-Syn aggregated neurons (α-Syn aggregated neurons; listed as EU05-02B): positive signals in α-Syn aggregated neurons
- staining of NFT [5]: barely recognized senile plaques or NFT
- staining of Lewy bodies (p-α-Syn S129 positive) [6]: concrete aggregates were also stained with the fluorescent signals from EU05-02B
- staining of senile plaques [7]: barely recognized senile plaques or NFT
- Kd (Tau PFFs [8]): 3.7 µM
- Kd (Aβ PFFs [9]): 850 nM

SMILES: COc1ccc(/C=C/c2nc3cc(C)c(N(C)CCOCCF)cc3s2)cc1Br [compound 8, (E)-2-(3-bromo-4-methoxystyryl)-N-(2-(2-fluoroethoxy)ethyl)-N,5-dimethylbenzo[d]thiazol-6-amine]
- binding toward Tau PFFs (Tau PFFs [10]): not Tau fibrils
- binding toward Aβ PFFs (Aβ PFFs [11]): somehow interacted with both α-Syn and Aβ
- binding activity toward α-Syn PFFs [12]: somehow interacted with both α-Syn and Aβ

SMILES: Cc1cc2nc(/C=C/c3ccc(OC(=O)N(C)C)c(Br)c3)sc2cc1N(C)CCOCCF [compound 13, (E)-2-bromo-4-(2-(6-((2-(2-fluoroethoxy)ethyl)(methyl)amino)-5-methylbenzo[d]thiazol-2-yl)vinyl)phenyl dimethylcarbamate]
- binding toward Tau PFFs (Tau PFFs [10]): did not specifically interact with α-Syn, Aβ or Tau aggregates
- binding toward Aβ PFFs (Aβ PFFs [11]): did not specifically interact with α-Syn, Aβ or Tau aggregates
- binding activity toward α-Syn PFFs [12]: did not specifically interact with α-Syn, Aβ or Tau aggregates
- plasma concentration course [13]: decreased in the plasma

Reference: patent US11844846B2, “Styrylbenzothiazole derivatives and uses in imaging methods” (Emory University, priority 2018, dated 2023)
